The values that follow come from patent US20160235778A1, “COMPOSITIONS CONTAINING PUFA, URIDINE AND CHOLINE AND METHODS OF USE THEREOF” (MASSACHUSETTS INSTITUTE OF TECHNOLOGY, priority 2014, published 2016).

For the assay, the system named is PC-12 cells. The assay can be described thus: 14C-choline incorporation into phospholipids in PC-12 cells. The assay is classed as cell-based. As for the experimental part: PC-12 cells were maintained in Dulbecco's modified Eagle's medium (DMEM)+10% fetal bovine serum (FBS). For experiments, cells were grown in quintuplicate collagen-coated 35 millimeter (mm) dishes. Cells were incubated for 18 hours (hr) in serum-free DMEM containing 28 μM choline+/−5 micromolar (μM) of DHA, oleic acid, or palmitic acid. Cells were then labeled for 2.5 hr with 0.5 microcurie (μCi)/ml ^14C-choline in serum-free DMEM containing 10-micromolar (μM) choline.
Cells were homogenized in 100 volumes of ice-cold deionized water using a tissue degrader (Polytron PT 10-35, Kinematica AG, Switzerland); 1 ml of aliquots were then mixed with 3 ml of chloroform+methanol mixture (2:1 v/v) and vortexed vigorously for 30 seconds. After cooling for 1 h on ice, the mixture was mixed sequentially with 3 ml of chloroform+methanol mixture (2:1 v/v) and 1 ml of ice-cold deionized water. […] Total phosphorus was determined by comparison with standard curves by using KH2PO4 run with each assay. […] Absorbance was measured spectrophotometrically at 820 nm. Phospholipid mass was determined by multiplying the phosphorus content by 25.
To further characterize the stimulation of phospholipid synthesis by omega-3 fatty acids, PC-12 cells were pre-treated with different doses of DHA and exposed to labeled choline as described in Example 1, then incorporation of ^14C-label into phospholipids was measured. […]

On to `CCC=CCC=CCC=CCC=CCC=CCC=CCCC(=O)O` [DHA, 4,7,10,13,16,19-docosahexaenoic acid], for which, under “18 h pre-incubation with 5 μM fatty acid, FIG. 1”, the “Phosphatidylcholine (PC) synthesis (incorporation of 14C label into PC)” value was “significantly increased”. Further, the “synthesis of phospholipids (incorporation of 14C-label)” value (different doses of DHA, dose-dependent, FIG. 2) is “increased synthesis of phospholipids”.
